What was measured:
Assay in all cases: relative viability (nuclei count vs DMSO), 5 days (fraction); higher = more cells survive
[1] = compound: CN1C=C(C2=CC=CC=C21)/C=C\3/C4=C(C=CC=N4)NC3=O + COc1cccc2cc(-c3nc([C@H]4CC[C@H](C(=O)O)CC4)n4ncnc(N)c34)[nH]c12 [OSI-027] (partner 0.5 µM)
How it was run: (§1)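 Five library-drug doses in √10 steps were combined with a fixed anchor-drug dose, or a single drug was given alone, by pin tool to lung cancer cell lines in 1536-well plates the day after seeding. Nuclei were stained and counted after 5 days. Relative viability is the nuclei count in treated wells over that in vehicle wells, taken as the median of duplicate plates.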

Trametinib + Pemetrexed = compound: CC(=O)Nc1cccc(-n2c(=O)n(C3CC3)c(=O)c3c(Nc4ccc(I)cc4F)n(C)c(=O)c(C)c32)c1 [Trametinib] + Nc1nc2[nH]cc(CCc3ccc(C(=O)N[C@@H](CCC(=O)O)C(=O)O)cc3)c2c(=O)[nH]1 [Pemetrexed] (partner 0.2 µM)
How it was run: as §1

Trametinib + Pictilisib = compound: CC(=O)Nc1cccc(-n2c(=O)n(C3CC3)c(=O)c3c(Nc4ccc(I)cc4F)n(C)c(=O)c(C)c32)c1 [Trametinib] + CS(=O)(=O)N1CCN(Cc2cc3nc(-c4cccc5[nH]ncc45)nc(N4CCOCC4)c3s2)CC1 [Pictilisib] (partner 1 µM)
How it was run: as §1

[2] = compound: CN1C=C(C2=CC=CC=C21)/C=C\3/C4=C(C=CC=N4)NC3=O + N=C(N)NC(=N)NCCc1ccccc1 [Phenformin] (partner 250 µM)
How it was run: as §1

Cell Line	relative viability ([1]; first compound 0.02 µM)	relative viability ([1]; first compound 0.06325 µM)	relative viability ([1]; first compound 0.6325 µM)	relative viability ([1]; first compound 2 µM)	relative viability (Trametinib + Pemetrexed; first compound 0.0025 µM)	relative viability (Trametinib + Pemetrexed; first compound 0.007906 µM)	relative viability (Trametinib + Pemetrexed; first compound 0.025 µM)	relative viability (Trametinib + Pemetrexed; first compound 0.07906 µM)	relative viability (Trametinib + Pemetrexed; first compound 0.25 µM)	relative viability (Trametinib + Pictilisib; first compound 0.0025 µM)	relative viability (Trametinib + Pictilisib; first compound 0.007906 µM)	relative viability (Trametinib + Pictilisib; first compound 0.025 µM)	relative viability (Trametinib + Pictilisib; first compound 0.07906 µM)	relative viability (Trametinib + Pictilisib; first compound 0.25 µM)	relative viability ([2]; first compound 0.02 µM)	relative viability ([2]; first compound 0.06325 µM)	relative viability ([2]; first compound 0.6325 µM)	relative viability ([2]; first compound 2 µM)	relative viability ([1]; first compound 0.2 µM)	relative viability ([2]; first compound 0.2 µM)
HCC-827	0.771	0.662	0.804	0.721	0.271	0.271	0.263	0.214	0.235	0.949	0.986	0.959	0.666	0.627	0.405	0.413	0.465	0.388		
HARA	0.539	0.449	0.505	0.586	0.224	0.226	0.254	0.212	0.219	0.384	0.342	0.131	0.207	0.213	0.407	0.412	0.34	0.431		
NCI-H441	0.557	0.646	0.607	0.459	0.3	0.306	0.247	0.261	0.285	0.44	0.306	0.234	0.214	0.163	0.795	0.754	0.88	0.772	0.739	0.804
SK-MES-1	0.58	0.628	0.608	0.446	0.916	0.736	0.664	0.428	0.407	0.282	0.223	0.214	0.171	0.187	0.653	0.634	0.672	0.624	0.582	0.715
HCC-15	0.656	0.568	0.651	0.552	0.21	0.221	0.227	0.186	0.221	0.596	0.232	0.175	0.158	0.182	0.422	0.462	0.448	0.463	0.582	0.486
EPLC-272H	0.219	0.29		0.309	0.318	0.328	0.287	0.294	0.27	0.268	0.221	0.175	0.174	0.0951	0.287	0.244		0.3	0.269	0.242
NCI-H2009	0.684	0.616	0.688	0.642	1.06	0.794	0.499	0.368	0.37	0.502	0.366	0.148	0.206	0.208	0.486	0.518	0.502	0.513	0.668	0.509
NCI-H661	0.751	0.689	0.676	0.76	0.882	0.889	0.821	0.753	0.753	0.377	0.426	0.222	0.273	0.257	0.261	0.277	0.276	0.264	0.722	0.266

From the supplement of paper PMC10307832
